# Literature values as cited in US20090098130A1, “GLUCAGON-LIKE PROTEIN-1 RECEPTOR (GLP-1R) AGONIST COMPOUNDS” (priority 2007, published 2009).
# Columns and labels:
# h38C2 = settings: competition ELISA against immobilized BSA-conjugated β-diketone 1, read-out: apparent equilibrium dissociation constant; cited from earlier work
# m38C2 = settings: competition ELISA against immobilized BSA-conjugated β-diketone 1, read-out: apparent equilibrium dissociation constant; cited from earlier work
smiles,measurement,setting,value
CC(=O)CC(=O)CCc1ccccc1 [β-diketone 3],Kd,h38C2,1000 nM
same,Kd,m38C2,430 nM
